Reference: US20060069132A1, “Azolecarboxamide herbicides” (priority 2004, published 2006)

Tests used:
giant foxtail = test: Test B pre-/postemergence herbicide test; type: in vivo, Setaria faberi; settings: for Foxtail, Giant plant response rating: postemergence, visual rating
How it was run: (§1)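 Evaluation is visual, comparing treated with control plants on a scale where 0 means no effect and 100 means full control. Treatments were preemergence, or postemergence on seedlings 2–18 cm tall, and held 13–15 days in the greenhouse.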

blackgrass = test: Test B postemergence herbicide test; type: in vivo, Alopecurus myosuroides; settings: scale 0 (no effect) to 100 (complete control); for Blackgrass plant response rating: postemergence, visual rating
How it was run: (§2)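 Formulated test chemicals went onto postemergence plants measuring 2 to 18 cm, at one to four leaves. For the paddy assay, species had reached two leaves. Scoring took place 13–15 days later by eye, relative to untreated plants, using 0 for no effect up to 100 for full control.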

lambsquarters = test: Test B pre-/postemergence herbicide test; type: in vivo, Chenopodium album; settings: for Lambsquarters plant response rating: postemergence, visual rating
How it was run: as §1

Surinam grass = test: Test B pre-/postemergence herbicide test; type: in vivo, Urochloa decumbens; settings: for Surinam Grass plant response rating: postemergence, visual rating
How it was run: as §1

rice = test: Test B flooded paddy test; type: in vivo, Oryza sativa; settings: 1000 g ai/ha, visual rating, scale 0 to 100 (0 no effect, 100 complete control), 13 to 15 days
How it was run: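 Each value is a visual 0–100 response rating taken against controls 13 to 15 days after treatment in the greenhouse. Plants received formulated chemical postemergence at the 1- to 4-leaf stage or, in flooded paddy, at the 2-leaf stage.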

pigweed = test: Test B pre-/postemergence herbicide test; type: in vivo, Amaranthus retroflexus; settings: for Pigweed plant response rating: postemergence, visual rating
How it was run: as §1

barnyardgrass = test: Test B flooded paddy test; type: in vivo, Echinochloa crus-galli; settings: 1000 g ai/ha, visual rating, scale 0 to 100 (0 no effect, 100 complete control), 13 to 15 days
How it was run: as §2

velvetleaf = test: Test B pre-/postemergence herbicide test; type: in vivo, Abutilon theophrasti; settings: for Velvetleaf plant response rating: postemergence, visual rating
How it was run: as §1

wild oat = test: Test B postemergence herbicide test; type: in vivo, Avena fatua; settings: scale 0 (no effect) to 100 (complete control); for Oat, Wild plant response rating: postemergence, visual rating
How it was run: (§3)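 Plants grow to 1- to 4-leaf stage (2–18 cm) for postemergence spraying, or to 2-leaf stage for the paddy test. Formulated compound is applied. Greenhouse holding lasts 13–15 days. Response is scored visually relative to controls, 0 no effect to 100 complete control; a dash means no result.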

[1] = tested on: small flower umbrella sedge; test: Test B flooded paddy test; type: in vivo, Cyperus difformis; settings: 1000 g ai/ha, visual rating, scale 0 to 100 (0 no effect, 100 complete control), 13 to 15 days
How it was run: as §2

corn = test: Test B pre-/postemergence herbicide test; type: in vivo, Zea mays; settings: for Corn plant response rating: postemergence, visual rating
How it was run: as §1

wheat = test: Test B postemergence herbicide test; type: in vivo, Triticum aestivum; parameters: key to Wheat plant response rating: 0 = no effect, 100 = complete control; settings: scale 0 (no effect) to 100 (complete control); for Wheat plant response rating: postemergence, visual rating
How it was run: as §3

large crabgrass = test: Test B pre-/postemergence herbicide test; type: in vivo, Digitaria sanguinalis; settings: for Crabgrass, Large plant response rating: postemergence, visual rating
How it was run: as §1

morningglory = test: Test B pre-/postemergence herbicide test; type: in vivo, Ipomoea coccinea; settings: for Morningglory plant response rating: postemergence, visual rating
How it was run: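 Plants compared with untreated controls 13–15 days post-treatment and given a visual 0–100 injury score. Applications: preemergence to seeds; postemergence at 1- to 4-leaf (2–18 cm); paddy species flooded, 2-leaf stage. Vehicle non-phytotoxic, surfactant included.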

ducksalad = test: Test B flooded paddy test; type: in vivo, Heteranthera limosa; settings: 1000 g ai/ha, visual rating, scale 0 to 100 (0 no effect, 100 complete control), 13 to 15 days
How it was run: as §2

[2] = 500 g ai/ha, visual rating 0-100, 0 no effect, 100 complete control, preemergence
[3] = Postemergence, 500 g ai/ha, visual rating after 13 to 15 days, scale 0 (no effect) to 100 (complete control)
[4] = 125 g ai/ha, scale 0 (no effect) to 100 (complete control)
[5] = preemergence, 125 g ai/ha, 0 to 100 scale, 0 is no effect, 100 is complete control
[6] = Postemergence, 500 g ai/ha, visual rating after 13 to 15 days
[7] = 500 g ai/ha, scale 0 (no effect) to 100 (complete control)

CCOC(=O)c1cc(NC(=O)c2cc(C(C)(C)C)nn2CC)ccc1OCC [Compound 95]
Plant response rating, Foxtail, Giant (giant foxtail; [2]): 100 | Plant response rating, Foxtail, Giant (giant foxtail; [3]): 30 | Foxtail, Giant plant response rating (giant foxtail; [4]): 10 | Plant response rating, Foxtail, Giant (giant foxtail; [5]): 50 | Plant response rating, Blackgrass (blackgrass; [6]): 0 | Blackgrass plant response rating (blackgrass; 125 g ai/ha): 0 | Plant response rating, Lambsquarters (lambsquarters; [2]): 100 | Plant response rating, Lambsquarters (lambsquarters; [3]): 100 | Lambsquarters plant response rating (lambsquarters; [4]): 100 | Plant response rating, Lambsquarters (lambsquarters; [5]): 100 | Plant response rating, Surinam Grass (Surinam grass; [2]): 70 | Plant response rating, Surinam Grass (Surinam grass; [3]): 20 | Surinam Grass plant response rating (Surinam grass; [4]): 20 | Plant response rating, Surinam Grass (Surinam grass; [5]): 20 | Rice plant response rating (rice): 60 | Plant response rating, Pigweed (pigweed; [2]): 100 | Plant response rating, Pigweed (pigweed; [3]): 100 | Pigweed plant response rating (pigweed; [4]): 90 | Plant response rating, Pigweed (pigweed; [5]): 100 | Barnyardgrass plant response rating (barnyardgrass): 50 | Plant response rating, Velvetleaf (velvetleaf; [2]): 60 | Plant response rating, Velvetleaf (velvetleaf; [3]): 60 | Velvetleaf plant response rating (velvetleaf; [4]): 50 | Plant response rating, Velvetleaf (velvetleaf; [5]): 0 | Plant response rating, Oat, Wild (wild oat; [6]): 20 | Oat, Wild plant response rating (wild oat; 125 g ai/ha): 10 | Sedge, Umbrella plant response rating [1]: 80 | Plant response rating, Corn (corn; [2]): 60 | Plant response rating, Corn (corn; [3]): 10 | Corn plant response rating (corn; [4]): 10 | Plant response rating, Corn (corn; [5]): 60 | Plant response rating, Wheat (wheat; [6]): 10 | Wheat plant response rating (wheat; 125 g ai/ha): 10 | Plant response rating, Crabgrass, Large (large crabgrass; [2]): 90 | Plant response rating, Crabgrass, Large (large crabgrass; [3]): 50 | Crabgrass, Large plant response rating (large crabgrass; [4]): 0 | Plant response rating, Crabgrass, Large (large crabgrass; [5]): 60 | Plant response rating, Morningglory (morningglory; [3]): 60 | Morningglory plant response rating (morningglory; [4]): 0 | Plant response rating, Morningglory (morningglory; [5]): 10 | Ducksalad plant response rating (ducksalad): 80

CCn1nc(C(C)(C)C)cc1C(=O)Nc1cccc(C(C)=O)c1 [Compound 122]
Plant response rating, Foxtail, Giant (giant foxtail; [2]): 80 | Foxtail, Giant plant response rating (giant foxtail; [4]): 10 | Foxtail, Giant plant response rating (giant foxtail; [7]): 20 | Plant response rating, Foxtail, Giant (giant foxtail; [5]): 50 | Blackgrass plant response rating (blackgrass; 125 g ai/ha): 0 | Blackgrass plant response rating (blackgrass; 500 g ai/ha): 10 | Plant response rating, Lambsquarters (lambsquarters; [2]): 100 | Lambsquarters plant response rating (lambsquarters; [4]): 0 | Lambsquarters plant response rating (lambsquarters; [7]): 0 | Plant response rating, Lambsquarters (lambsquarters; [5]): 80 | Plant response rating, Surinam Grass (Surinam grass; [2]): 70 | Surinam Grass plant response rating (Surinam grass; [4]): 10 | Surinam Grass plant response rating (Surinam grass; [7]): 10 | Plant response rating, Surinam Grass (Surinam grass; [5]): 20 | Rice plant response rating (rice): 70 | Plant response rating, Pigweed (pigweed; [2]): 80 | Pigweed plant response rating (pigweed; [4]): 0 | Pigweed plant response rating (pigweed; [7]): 10 | Plant response rating, Pigweed (pigweed; [5]): 70 | Barnyardgrass plant response rating (barnyardgrass): 60 | Plant response rating, Velvetleaf (velvetleaf; [2]): 60 | Velvetleaf plant response rating (velvetleaf; [4]): 10 | Velvetleaf plant response rating (velvetleaf; [7]): 20 | Plant response rating, Velvetleaf (velvetleaf; [5]): 40 | Oat, Wild plant response rating (wild oat; 125 g ai/ha): 10 | Oat, Wild plant response rating (wild oat; 500 g ai/ha): 40 | Sedge, Umbrella plant response rating [1]: 80 | Plant response rating, Corn (corn; [2]): 30 | Corn plant response rating (corn; [4]): 10 | Corn plant response rating (corn; [7]): 10 | Plant response rating, Corn (corn; [5]): 0 | Wheat plant response rating (wheat; 125 g ai/ha): 0 | Wheat plant response rating (wheat; 500 g ai/ha): 10 | Plant response rating, Crabgrass, Large (large crabgrass; [2]): 100 | Crabgrass, Large plant response rating (large crabgrass; [4]): 10 | Crabgrass, Large plant response rating (large crabgrass; [7]): 10 | Plant response rating, Crabgrass, Large (large crabgrass; [5]): 90 | Plant response rating, Morningglory (morningglory; [2]): 70 | Morningglory plant response rating (morningglory; [4]): 0 | Morningglory plant response rating (morningglory; [7]): 0 | Plant response rating, Morningglory (morningglory; [5]): 20 | Ducksalad plant response rating (ducksalad): 80

CC(=O)c1cccc(NC(=O)c2cc(C(C)(C)C)nn2CCF)c1 [Compound 128]
Plant response rating, Foxtail, Giant (giant foxtail; [2]): 60 | Foxtail, Giant plant response rating (giant foxtail; [4]): 20 | Foxtail, Giant plant response rating (giant foxtail; [7]): 20 | Plant response rating, Foxtail, Giant (giant foxtail; [5]): 40 | Blackgrass plant response rating (blackgrass; 125 g ai/ha): 10 | Blackgrass plant response rating (blackgrass; 500 g ai/ha): 10 | Plant response rating, Lambsquarters (lambsquarters; [2]): 70 | Lambsquarters plant response rating (lambsquarters; [4]): 0 | Lambsquarters plant response rating (lambsquarters; [7]): 60 | Plant response rating, Lambsquarters (lambsquarters; [5]): 0 | Plant response rating, Surinam Grass (Surinam grass; [2]): 60 | Surinam Grass plant response rating (Surinam grass; [4]): 10 | Surinam Grass plant response rating (Surinam grass; [7]): 20 | Plant response rating, Surinam Grass (Surinam grass; [5]): 40 | Rice plant response rating (rice): 60 | Plant response rating, Pigweed (pigweed; [2]): 80 | Pigweed plant response rating (pigweed; [4]): 20 | Pigweed plant response rating (pigweed; [7]): 60 | Plant response rating, Pigweed (pigweed; [5]): 50 | Barnyardgrass plant response rating (barnyardgrass): 70 | Plant response rating, Velvetleaf (velvetleaf; [2]): 80 | Velvetleaf plant response rating (velvetleaf; [4]): 50 | Velvetleaf plant response rating (velvetleaf; [7]): 60 | Plant response rating, Velvetleaf (velvetleaf; [5]): 70 | Oat, Wild plant response rating (wild oat; 125 g ai/ha): 10 | Oat, Wild plant response rating (wild oat; 500 g ai/ha): 10 | Sedge, Umbrella plant response rating [1]: 90 | Plant response rating, Corn (corn; [2]): 20 | Plant response rating, Corn (corn; [5]): 0 | Wheat plant response rating (wheat; 125 g ai/ha): 0 | Wheat plant response rating (wheat; 500 g ai/ha): 20 | Plant response rating, Crabgrass, Large (large crabgrass; [2]): 100 | Crabgrass, Large plant response rating (large crabgrass; [4]): 20 | Crabgrass, Large plant response rating (large crabgrass; [7]): 20 | Plant response rating, Crabgrass, Large (large crabgrass; [5]): 90 | Plant response rating, Morningglory (morningglory; [2]): 30 | Plant response rating, Morningglory (morningglory; [5]): 20 | Ducksalad plant response rating (ducksalad): 90

CCOc1cccc(NC(=O)c2cc(C(C)(C)C)nn2CC)c1 [Compound 136]
Plant response rating, Foxtail, Giant (giant foxtail; [2]): 100 | Foxtail, Giant plant response rating (giant foxtail; [4]): 10 | Foxtail, Giant plant response rating (giant foxtail; [7]): 10 | Plant response rating, Foxtail, Giant (giant foxtail; [5]): 80 | Blackgrass plant response rating (blackgrass; 125 g ai/ha): 30 | Blackgrass plant response rating (blackgrass; 500 g ai/ha): 60 | Plant response rating, Lambsquarters (lambsquarters; [2]): 100 | Lambsquarters plant response rating (lambsquarters; [4]): 100 | Lambsquarters plant response rating (lambsquarters; [7]): 100 | Plant response rating, Lambsquarters (lambsquarters; [5]): 100 | Plant response rating, Surinam Grass (Surinam grass; [2]): 90 | Surinam Grass plant response rating (Surinam grass; [4]): 20 | Surinam Grass plant response rating (Surinam grass; [7]): 70 | Plant response rating, Surinam Grass (Surinam grass; [5]): 40 | Rice plant response rating (rice): 30 | Plant response rating, Pigweed (pigweed; [2]): 100 | Pigweed plant response rating (pigweed; [4]): 60 | Pigweed plant response rating (pigweed; [7]): 90 | Plant response rating, Pigweed (pigweed; [5]): 100 | Barnyardgrass plant response rating (barnyardgrass): 60 | Plant response rating, Velvetleaf (velvetleaf; [2]): 100 | Velvetleaf plant response rating (velvetleaf; [4]): 60 | Velvetleaf plant response rating (velvetleaf; [7]): 70 | Plant response rating, Velvetleaf (velvetleaf; [5]): 50 | Oat, Wild plant response rating (wild oat; 125 g ai/ha): 50 | Oat, Wild plant response rating (wild oat; 500 g ai/ha): 60 | Sedge, Umbrella plant response rating [1]: 90 | Plant response rating, Corn (corn; [2]): 30 | Corn plant response rating (corn; [4]): 10 | Corn plant response rating (corn; [7]): 30 | Plant response rating, Corn (corn; [5]): 10 | Wheat plant response rating (wheat; 125 g ai/ha): 20 | Wheat plant response rating (wheat; 500 g ai/ha): 40 | Plant response rating, Crabgrass, Large (large crabgrass; [2]): 100 | Crabgrass, Large plant response rating (large crabgrass; [4]): 10 | Crabgrass, Large plant response rating (large crabgrass; [7]): 70 | Plant response rating, Crabgrass, Large (large crabgrass; [5]): 100 | Plant response rating, Morningglory (morningglory; [2]): 70 | Morningglory plant response rating (morningglory; [4]): 20 | Morningglory plant response rating (morningglory; [7]): 100 | Plant response rating, Morningglory (morningglory; [5]): 50 | Ducksalad plant response rating (ducksalad): 90
